Assay results from PMC3335862, “Novel Small-Molecule Inhibitors of Hepatitis C Virus Entry Block Viral Spread and Promote Viral Clearance in Cell Culture” (PLoS ONE, 2012).
Read-outs that look alike come from different tables or passages of the source.

Key:
[1] = test system: GT 1b/2a HCV; assay: HCV cell culture infection assay (Renilla luciferase), GT 1b/2a; details: Hepatitis C virus, GT1B, read-out: HCV Cell Culture EC50 GT 1b/2a
[2] = test system: GT 1a/2a HCV; assay: Quantification of HCV RNA by qRT-PCR in long term treated cultures
[3] = in vitro; details: human
[4] = test system: HCVpp V719G; format: cell-based, hepatitis C virus; details: GT1a background
[5] = test system: GT 1a/2a HCV; assay: HCV viral spread assay (cell-free and cell-cell transmission), flow cytometry; format: cell-based, hepatitis C virus; details: 72 h; PRO0371155 1 µM, PA-25 10 µg/mL; DMSO control 18.3, Background 0.31
Excerpt: Figure 3 PRO0371155 inhibits HCV infection by both cell-free and cell-cell modes of transmission. […] TEXT PRINTED IN THE PICTURE: PA-25: 7.54; 19.9; 66.8; 5.75 | DMSO: 4.4; 29.8; 47.6; 18.3 | PRO0371155: 8.1; 25.7; 65.7; 0.48 DOUBTS OF THE COPYIST ABOUT THIS PICTURE: All values are quadrant numbers of flow cytometry plots, given in the order upper left, upper right, lower left, lower right. The picture prints no measure or unit with them. / The print is very small, so 3, 5, 6, 8 and 9 cannot be told apart with certainty in any of the values below. / PA-25: 7.54, 19.9, 66.8 (partly hidden by data points; may be 65.8 or 68.8), 5.75 / DMSO: 4.4, 29.8 (or 29.6), 47.6 (partly hidden by data points; may be 47.8), 18.3 (or 18.8) / PRO0371155: 8.1, 25.7, 65.7 (partly hidden by data points), 0.48 (or 0.46) / The plot headed 'Background' (0.016, 5.44e-3, 99.7, 0.31) is left out because it is a staining control and not a substance.
8.8.7 software (TreeStar).
To determine whether the triazine series can block both routes of infection, we utilized a flow cytometry-based cell-to-cell transmission assay. Infected cells, stained with CellTracker green, were mixed with naïve cells in the presence or absence of entry inhibitors.

[6] = test system: HCVpp GT1a Pass. Ctrl.; assay: microbe, parasite or virus in culture; format: cell-based; details: Hepatitis C virus, envelope from DMSO passage control culture
[7] = test system: GT 1a/2a HCV; assay: HCV cell culture infection assay (Renilla luciferase), GT 1a/2a; details: Hepatitis C virus, GT1A, read-out: HCV Cell Culture EC50 GT 1a/2a
[8] = test system: HCVpp T388A; format: cell-based, hepatitis C virus
[9] = test system: HCVpp GT1a-V719L; format: cell-based, hepatitis C virus; details: GT1a background
[10] = test system: Hep3B, Huh-7, 293T, HeLa, Daudi, Ramos, Jurkat, primary hepatocyte; details: CellTiter Glo assay; data not shown except Hep3B
[11] = test system: HCVpp GT 1a-V719I; format: cell-based, hepatitis C virus
[12] = test system: GT 1a/2a HCV
[13] = test system: VSVpp; assay: microbe, parasite or virus in culture; format: cell-based, VSV
[14] = test system: HCVpp genotype 4; assay: microbe, parasite or virus in culture; format: cell-based; details: Hepatitis C virus; n = 1 strain
[15] = test system: HCVpp GT 1a V719A; format: cell-based, hepatitis C virus
[16] = test system: HCVpp GT 1b; assay: microbe, parasite or virus in culture; format: cell-based; details: Hepatitis C virus, GT1B
[17] = test system: HCVpp GT 1b-V719L; format: cell-based, hepatitis C virus; details: Genotype 1b background
[18] = test system: HCVpp GT 1b V719A; format: cell-based, hepatitis C virus; details: Genotype 1b background
[19] = test system: HCVpp pseudotyped with the GT1a envelope; assay: microbe, parasite or virus in culture; format: cell-based; details: Hepatitis C virus, Hep3B cells, 72 h
[20] = test system: HCVpp typed with envelopes representing genotypes 2a, 2b, 3, and 6; assay: microbe, parasite or virus in culture; format: cell-based; details: Hepatitis C virus
[21] = test system: HCVpp GT 1b-V719I; format: cell-based, hepatitis C virus; details: Genotype 1b background
[22] = culture initially 33% HCV+, 1 µM

CS(=O)(=O)N1CCC(Nc2nc(Nc3cccc(C(F)(F)F)c3)nc(OCC(F)(F)F)n2)CC1 [PRO0371155]
EC50 [1]: > 1000 nM | time HCV RNA maintained at background levels after removal of compound [2]: > 50 days | HCV RNA levels ([2]; after 100 days in the presence of compound, 1 µM, limit of quantification): < 0.5 copies/cell | CC50 [3]: 31000 nM | EC50 [4]: > 1000 nM | loss in susceptibility, V719G vs GT1a in the HCVpp assay [4]: > 500 fold | newly infected HCV+ cells (lower right quadrant) [5]: 0.48% | EC50 [6]: 4 nM | EC50 [7]: 9 nM | influence of T388A on susceptibility in the HCVpp assay [8]: did not have any influence | EC50 ([8]; GT1a background): 2 nM | reduction in activity vs parent GT1a envelope, V719L [9]: 500 fold | cytotoxicity against a panel of cell lines and primary cells [10]: minimal cytotoxicity | reduction in potency vs parent GT1a envelope, V719I ([11]; GT1a background): 34 fold | EC50 ([11]; Genotype 1a background): 67 nM | fold change of EC50 vs parent GT 1a, V719I ([11]; Genotype 1a background): 34 × | change in percentage of HCV+ cells (NS3 staining) ([12]; 20% HCV+ at baseline, PRO0371155 1 µM, IFN-alpha 10 IU/mL): more gradual decline | day of viral breakthrough in the presence of compound [12, 22]: 21 days | time to loss of viral suppression and emergence of drug resistance [12, 22]: ~3 weeks | fate of infected cells on long term treatment ([12]; culture initially 90% HCV+, 1 µM): eradicated | viral rebound during washout period ([12]; drug released at day 116, passaged additional 30 days, 90% HCV+ culture): not observed | inhibition of entry of pseudoviral particles with envelope glycoproteins from irrelevant viruses including VSV [13]: did not inhibit | EC50 ([13]; Vesicular stomatitis virus, read-out: VSVpp EC50): 39000 nM | EC50 [14]: 190 nM | reduction in potency vs parent GT1a envelope, V719A ([15]; GT1a background): 46 fold | EC50 ([15]; Genotype 1a background): 92 nM | fold change of EC50 vs parent GT 1a, V719A ([15]; Genotype 1a background): 46 × | EC50 ([16]; Hep3B, parent GT 1b envelope, read-out: EC50, HCVpp GT 1b): 317 nM | EC50 ([16]; median across panel of GT 1b envelopes from HCV+ patient sera (n = strains), Hep3B cells, 72 h, read-out: HCVpp Median EC50 GT 1b): > 825 nM | EC50 [17]: > 1000 nM | fold change of EC50 vs parent GT 1b, V719L [17]: 3 × | EC50 [18]: 273 nM | fold change of EC50 vs parent GT 1b, V719A [18]: 0.9 × | EC50 ([19]; median across panel of GT 1a envelopes from HCV+ patient sera (n = strains), read-out: HCVpp Median EC50 GT 1a): 9 nM | EC50 ([19]; prototypical/parent GT 1a envelope, read-out: GT1a (EC50), HCVpp): 2 nM | EC50 [20]: > 1000 nM | EC50 [21]: > 1000 nM | fold change of EC50 vs parent GT 1b, V719I [21]: 3 ×
